Experimental data reported in publication PMC7345279 (Antibiotics, 2020).
Where “and” joins values, the source holds several entries; their conditions need not be identical. Identical values can stand only once. Like-named read-outs stand apart in the source and are kept apart here.

Assays:
plasma proteins = settings: cited from earlier work
[1] = test system: α-1-acid glycoprotein (AGP); experiment: Binding of FLU to AGP solutions (0.9 and […]), alone and with IMA (ultrafiltration, LC-MS/MS); settings: for % Unb / Total conc / Unb Conc: alone
human plasma proteins = experiment: Unbound fraction / protein binding of FLU in pooled plasma, alone and with a second drug (ultrafiltration, LC-MS/MS); settings: for FLU bound %: Pooled Plasma; for %Unbound / Measured Unbound Conc in Plasma / Measured Total Conc in Plasma: pooled plasma, alone, listed as FLU alone
[2] = as above; settings: human, plasma
HSA = HSA (Homo sapiens, UniProt P02768); experiment: Binding of FLU to HSA solutions (40 and 25 g/L), alone and with anticancer agents (ultrafiltration, LC-MS/MS); settings: for % Unb / Total conc / Unb Conc: alone
Sequence of HSA (P02768 25-609): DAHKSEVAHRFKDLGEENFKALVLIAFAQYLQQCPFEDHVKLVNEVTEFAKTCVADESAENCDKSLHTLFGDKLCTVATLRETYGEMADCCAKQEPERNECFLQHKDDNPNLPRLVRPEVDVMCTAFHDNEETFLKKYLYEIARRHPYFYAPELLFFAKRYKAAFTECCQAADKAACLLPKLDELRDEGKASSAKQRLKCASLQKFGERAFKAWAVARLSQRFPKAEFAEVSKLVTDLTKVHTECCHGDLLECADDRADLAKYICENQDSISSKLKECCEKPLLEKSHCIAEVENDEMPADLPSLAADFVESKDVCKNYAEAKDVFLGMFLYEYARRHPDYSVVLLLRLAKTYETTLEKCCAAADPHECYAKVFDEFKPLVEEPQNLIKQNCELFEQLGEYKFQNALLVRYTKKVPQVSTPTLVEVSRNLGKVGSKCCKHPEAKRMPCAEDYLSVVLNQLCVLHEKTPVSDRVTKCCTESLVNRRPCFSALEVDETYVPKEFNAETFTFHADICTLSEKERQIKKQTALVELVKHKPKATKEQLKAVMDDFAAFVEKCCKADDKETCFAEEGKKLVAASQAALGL

In the case of `Cc1onc(-c2c(F)cccc2Cl)c1C(=O)N[C@@H]1C(=O)N2[C@@H]1SC(C)(C)[C@@H]2C(=O)O` [FLU, Flucloxacillin], the “binding to plasma proteins” value (plasma proteins; healthy patients) is given as 95–97%, the typical unbound fraction (plasma proteins; patients with normal HSA (>42 g/L)) is given as 3–5% and the “bound to plasma proteins” value (plasma proteins; ref 13, 17, 38) is given as “more than 95%”. The “protein binding of FLU in other studies” value (plasma proteins; ref 36) was 95%, the “protein binding of FLU in other studies” value (plasma proteins; ref 38) was 93% and the “% Unb” value ([1]; AGP 0.9 g/L, FLU 0.2 µg/mL) was 39.08%. For the same compound, the Total conc ([1]; AGP 0.9 g/L, FLU 0.2 µg/mL) was 0.261 µg/mL, the “Unb Conc” value ([1]; AGP 0.9 g/L, FLU 0.2 µg/mL) was 0.1019 µg/mL and the “% Unb” value ([1]; AGP 0.9 g/L, FLU 20 µg/mL) was 22.11%. The Total conc ([1]; AGP 0.9 g/L, FLU 20 µg/mL) was 21.060 µg/mL, the “Unb Conc” value ([1]; AGP 0.9 g/L, FLU 20 µg/mL) was 4.6563 µg/mL and the “% Unb” value ([1]; AGP […], FLU 0.2 µg/mL) was 32.04%. For the same compound, the Total conc ([1]; AGP […], FLU 0.2 µg/mL) was 0.266 µg/mL, the “Unb Conc” value ([1]; AGP […], FLU 0.2 µg/mL) was 0.0852 µg/mL and the “% Unb” value ([1]; AGP […], FLU 20 µg/mL) was 20.62%. For the same compound, the Total conc ([1]; AGP […], FLU 20 µg/mL) was 20.745 µg/mL, the “Unb Conc” value ([1]; AGP […], FLU 20 µg/mL) was 4.2773 µg/mL and the FLU bound % ([1]; AGPs (0.9 g/l), FLU 0.2 µg/mL) was 60.92%. The FLU bound % ([1]; AGPs ([…]), FLU 0.2 µg/mL) was 67.96%, the FLU bound % ([1]; AGPs ([…]), FLU 20 µg/mL) was 79.38% and the FLU bound % (human plasma proteins; FLU 0.2 µg/mL) was 99.11%. The FLU bound % (human plasma proteins; FLU 20 µg/mL) was 98.85%, the “%Unbound” value (human plasma proteins; FLU 0.2 µg/mL) was 0.7% and 0.78% and the “Measured Unbound Conc in Plasma” value (human plasma proteins; FLU 0.2 µg/mL) was 0.0016 µg/mL and 0.0023 µg/mL. For the same compound, the “%Unbound” value (human plasma proteins; FLU 20 µg/mL) was 0.98% and 0.76% and 0.73%, the “Measured Unbound Conc in Plasma” value (human plasma proteins; FLU 20 µg/mL) was 0.1275 µg/mL and 0.21 µg/mL and 0.1766 µg/mL and 0.152 µg/mL and the “Measured Total Conc in Plasma” value (human plasma proteins; FLU spiked 0.2 µg/mL) was 0.24 µg/mL and 0.23 µg/mL and 0.28 µg/mL. For the same compound, the “Measured Total Conc in Plasma” value (human plasma proteins; FLU spiked 20 µg/mL) was 21.76 µg/mL and 21.18 µg/mL and 23.09 µg/mL and 20.722 µg/mL, the fraction unbound at 30 min, 0.2 µg/mL ([2]; %Unbound, pooled plasma, FLU 0.2 µg/mL, alone) was 0.0066 and the fraction unbound at 30 min, 20 µg/mL ([2]; %Unbound, pooled plasma, FLU 20 µg/mL, alone) was 0.0059. For the same compound, the fraction unbound at 30 min ([2]; protein binding of FLU, spiked pooled plasma, 37 °C, 30 min, range over tested FLU concentrations) was 0.0059 to 0.0098, the FLU bound % (HSA; Albumin (25 g/l), FLU 0.2 µg/mL) was 94.91% and the FLU bound % (HSA; Albumin (25 g/l), FLU 20 µg/mL) was 93.49%. For the same compound, the FLU bound % (HSA; Albumin (40 g/l), FLU 0.2 µg/mL) was 94.39%, the FLU bound % (HSA; Albumin (40 g/l), FLU 20 µg/mL) was 93.98% and the “% Unb” value (HSA; HSA 25 g/L, FLU 0.2 µg/mL) was 5.09%. The “Total conc” value (HSA; HSA 25 g/L, FLU 0.2 µg/mL) was 0.232 µg/mL, the “Unb Conc” value (HSA; HSA 25 g/L, FLU 0.2 µg/mL) was 0.012 µg/mL and the “% Unb” value (HSA; HSA 25 g/L, FLU 20 µg/mL) was 6.51%. For the same compound, the “Total conc” value (HSA; HSA 25 g/L, FLU 20 µg/mL) was 18.214 µg/mL, the “Unb Conc” value (HSA; HSA 25 g/L, FLU 20 µg/mL) was 1.182 µg/mL and the “% Unb” value (HSA; HSA 40 g/L, FLU 0.2 µg/mL) was 5.61%. The “Total conc” value (HSA; HSA 40 g/L, FLU 0.2 µg/mL) was 0.197 µg/mL, the “Unb Conc” value (HSA; HSA 40 g/L, FLU 0.2 µg/mL) was 0.011 µg/mL and the “% Unb” value (HSA; HSA 40 g/L, FLU 20 µg/mL) was 6.02%. For the same compound, the “Total conc” value (HSA; HSA 40 g/L, FLU 20 µg/mL) was 16.04 µg/mL, the “Unb Conc” value (HSA; HSA 40 g/L, FLU 20 µg/mL) was 0.966 µg/mL and the fraction unbound at 30 min (HSA; human) was 0.0561 to 0.0602.

In the case of `O=c1[nH]cc(F)c(=O)[nH]1` [5-FU, 5-fluorouracil], the protein binding (plasma proteins; ref 63) is given as 8–12%.

For `Cc1ccc(NC(=O)c2ccc(CN3CCN(C)CC3)cc2)cc1Nc1nccc(-c2cccnc2)n1` [IMA, imatinib], the “bound to human plasma proteins” value (plasma proteins; ref 54) is listed as 95%.
